Columns and labels:
HBV = experiment: Anti-HBV activity: HBV DNA in culture medium by qPCR, HepG2.2.15 cells; assay type: cell-based; conditions: Hepatitis B virus, 144 h, 6 days treatment
Description: (§1) HepG2.2.15 (the HepG2.2.15 cell line can be produced by transfection of the HepG2 cell line as described in Sells, Chen, and Acs 1987 (Proc. Natl. Acad. Sci. USA 84: 1005-1009), and the HepG2 cell line is available from ATCC® under number HB-8065™)
(§2) HepG2.2.15 cells were plated into 96-well plate in 2% FBS culture medium at the density of 40,000 cells/well and 5,000 cells/well for HBV inhibitory activity and cytotoxicity determination, respectively. After incubation at 37° C., 5% CO2 overnight, cells were treated with medium containing compounds for 6 days with medium and compounds refreshed after 3 days of treatment. Each compound was tested in a 1:3 serial dilutions at 8 different concentrations in triplicate. The highest concentration of the compounds was 10 uM or 1 uM for anti-HBV activity assay and 100 uM for cytotoxicity determination.
The change of HBV DNA level induced by the compounds was assessed by quantitative real-time polymerase chain reaction (qPCR). Briefly, the HBV DNA in the culture medium was extracted using QIAamp 96 DNA Blood Kit according to the manual and then quantified by real-time PCR assay using the primers and probe in the table 1 below.
(§3) EC50 and CC50 values are calculated by the GRAPHPAD PRISM software.

[1] = Cytotoxicity determination by CCK-8 assay, HepG2.2.15 cells; assay type: cell-based; conditions: human, 6 days treatment
Description: as §1, §2
Cell viability was determined by CCK-8 assay. After 6 days of compounds treatment, 20 μl CCK-8 reagents were added to each well of cytotoxicity assay plates. Cell plates were incubated at 37° C., 5% CO2 for 2.5 h. The absorbance at 450 nm wavelength and the absorbance at 630 nm wavelength as reference was measured.
as §3

Row | SMILES | EC50 (HBV) [µM] | CC50 at 6 days [1] [µM]
1 | CCOC(=O)C1=C(C23C4C5C2C2C3C4C52C(=O)O)NC(c2nccs2)=NC1c1ccc(Cl)c(F)c1 (single isomer, unassigned) [Ib-23, (S*)-4-(6-(4-chloro-3-fluorophenyl)-5-(ethoxycarbonyl)-2-(thiazol-2-yl)-3,6-dihydropyrimidin-4-yl)cubane-1-carboxylic Acid] | > 6.25 | 0.013
2 | COC(=O)C1=C(C23C4C5C2C2C3C4C52C(=O)O)NC(c2nccs2)=N[C@@H]1c1ccc(F)cc1Br (stereo in doubt) [Ib-16, (2S,3S,5S,6S,7S,8S)-4-((S*)-6-(2-bromo-4-fluorophenyl)-5-(methoxycarbonyl)-2-(thiazol-2-yl)-3,6-dihydropyrimidin-4-yl)cubane-1-carboxylic Acid] | > 50 | 0.071
3 | COC(=O)C1=C(C23C4C5C2C2C3C4C52c2nc(C(=O)O)co2)NC(c2nccs2)=N[C@@H]1c1ccc(F)cc1Cl (single isomer, unassigned) [Ib-2, 2-((1R,2R,3R,8S)-4-((S*)-6-(2-chloro-4-fluoro-phenyl)-5-(methoxycarbonyl)-2-(thiazol-2-yl)-3,6-dihydropyrimidin-4-yl)cuban-1-yl)oxazole-4-carboxylic Acid] | 24 | 0.11
4 | CCOC(=O)C1=C(C23C4C5C2C2C3C4C52C(=O)O)NC(c2nccs2)=NC1c1ccc(F)cc1C (single isomer, unassigned) [Ia-5, (R*)-4-(5-(ethoxycarbonyl)-6-(4-fluoro-2-methylphenyl)-2-(thiazol-2-yl)-3,6-dihydropyrimidin-4-yl)cubane-1-carboxylic Acid] | > 50 | 0.043
5 | COC(=O)C1=C(C23C4C5C2C2C3C4C52C(=O)O)NC(c2nccs2)=N[C@@H]1c1cccc(F)c1Cl (single isomer, unassigned) [Ib-8, (1S,2R,3S,8S)-4-((S*)-6-(2-chloro-3-fluorophenyl)-5-(methoxycarbonyl)-2-(thiazol-2-yl)-3,6-dihydropyrimidin-4-yl)cubane-1-carboxylic Acid] | > 50 | 0.132
6 | COC(=O)C1=C(C23C4C5C2C2C3C4C52C(=O)O)NC(c2nccs2)=N[C@@H]1c1ccc(F)c(F)c1C (single isomer, unassigned) [Ia-3] | > 50 | 0.045
7 | CCOC(=O)C1=C(C23C4C5C2C2C3C4C52C(=O)O)NC(c2nccs2)=N[C@@H]1c1ccc(F)c(F)c1Br (stereo in doubt) [Ib-14, (2S,3S,5S,6S,7S,8S)-4-((S*)-6-(2-bromo-3,4-difluorophenyl)-5-(ethoxycarbonyl)-2-(thiazol-2-yl)-3,6-dihydropyrimidin-4-yl)cubane-1-carboxylic Acid] | 41 | 0.007
8 | COC(=O)C1=C(C23C4C5C2C2C3C4C52C(=O)O)NC(c2nccs2)=N[C@@H]1c1cccc(F)c1Br (stereo in doubt) [Ib-17, (2S,3S,5S,6S,7S,8S)-4-((S*)-6-(2-bromo-3-fluorophenyl)-5-(methoxycarbonyl)-2-(thiazol-2-yl)-3,6-dihydropyrimidin-4-yl)cubane-1-carboxylic Acid] | 25 | 0.125
9 | CCOC(=O)C1=C(C23C4C5C2C2C3C4C52C(=O)O)NC(c2nccs2)=N[C@@H]1c1ccc(F)c(F)c1Cl (stereo in doubt) [Ib-7, (2S,3S,5S,6S,7S,8S)-4-((S*)-6-(2-chloro-3,4-difluorophenyl)-5-(ethoxycarbonyl)-2-(thiazol-2-yl)-3,6-dihydropyrimidin-4-yl)cubane-1-carboxylic Acid] | 25 | 0.005

Reference: US20220267313A1, “DIHYDROPYRIMIDINE DERIVATIVES AND USES THEREOF IN THE TREATMENT OF HBV INFECTION OR OF HBV-INDUCED DISEASES” (Janssen Sciences Ireland Unlimited Company, priority 2019, published 2022)
